Source: patent US8735402B2, “Cycloalkyloxycarboxylic acid derivatives” (Sanofi, priority 2011, dated 2014)

Target: T1, human Edg-1 receptor (Homo sapiens, UniProt P21453)
T1 construct: FLAG (N); expressed in transfected cells; membrane preparation
Assay: GTP-γ-S assay using human Edg-1 receptors (scintillation proximity assay, CHO Flp-In cell membrane preparation)
Type: biochemical
Conditions: test compound 10 μM; 10 μM S1P regarded as 100% activation; background-corrected; triplicate
From the text: Determination of the Pharmacological Activity A) GTP-γ-S Assay Using Human Edg-1 Receptors In order to determine the Edg-1 receptor activation by the compounds of the invention, a GTP-γ-S ((GTP-γ-S=guanosine 5′-[thio]triphosphate) assay for G-protein coupled receptor binding based on the scintillation proximity assay principle was used, employing a cell membrane preparation from a CHO Flp-In cell line which constitutively overexpresses the human Edg-1 receptor. The Flp-In™ expression system (Invitrogen/Life Technologies™ cat. no. K6010-01) allows the generation of stable mammalian cell lines into which the gene of interest has been integrated through […] at a specific genomic location called Flp Recombination Target (FRT) site by means of a Flp recombinase encoded by the pOG44 expression plasmid. […] The EDG-1 membrane preparation obtained in (b) was initially used in a commercial scintillation proximity assay kit (Amersham/GE Healthcare, cat. no. RPNQ0210) to quantify the receptor activation. Here, the ligand-induced binding of ^35S-radiolabeled GTP-γ-S to the receptor-containing membrane causes the emission of light in the scintillation beads attached to the membrane preparation, which allows quantification of the in vitro activity of the Edg-1-agonistic compound. […]

T1 sequence (P21453 whole entry): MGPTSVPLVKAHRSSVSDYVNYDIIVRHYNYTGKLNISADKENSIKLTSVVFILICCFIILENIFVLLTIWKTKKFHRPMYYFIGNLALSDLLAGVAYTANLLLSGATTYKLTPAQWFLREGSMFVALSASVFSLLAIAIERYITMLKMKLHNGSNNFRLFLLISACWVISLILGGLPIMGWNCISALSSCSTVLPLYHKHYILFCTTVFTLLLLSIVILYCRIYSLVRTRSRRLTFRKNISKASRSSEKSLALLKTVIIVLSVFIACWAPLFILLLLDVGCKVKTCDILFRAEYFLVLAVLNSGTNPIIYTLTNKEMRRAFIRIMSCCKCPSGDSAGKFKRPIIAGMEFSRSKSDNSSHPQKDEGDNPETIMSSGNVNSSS

Row | Edg-1 receptor activation by example compounds at 10 μM in percent of the activation by 10 μM S1P (% activation) [%] | SMILES
1 | 116 | Cc1cc(-c2nc3cnc(Oc4cccc(Cl)c4)nc3o2)cc(C)c1OC1CC(C(=O)O)C1 (centres unmarked) [Example 1, 3-{4-[5-(3-Chlorophenoxy)oxazolo[5,4-d]pyrimidin-2-yl]-2,6-dimethylphenoxy}cyclobutanecarboxylic acid]
2 | 83 | Cc1cc(-c2nc3cnc(Oc4ccccc4F)nc3o2)cc(C)c1OC1CC(C(=O)O)C1 (centres unmarked) [Example 2, 3-{4-[5-(2-Fluorophenoxy)oxazolo[5,4-d]pyrimidin-2-yl]-2,6-dimethylphenoxy}cyclobutanecarboxylic acid]
